Laboratory results published in publication PMC6522941, “Design, synthesis, and anticancer evaluation of novel quinoline derivatives of ursolic acid with hydrazide, oxadiazole, and thiadiazole moieties as potent MEK inhibitors” (Journal of Enzyme Inhibition and Medicinal Chemistry, 2019).

Key:
QSG-7701 cells = assay: MTT cytotoxic assay, normal hepatocyte QSG-7701; format: cell-based, human; conditions: for IC50: Homo sapiens, QSG7701, MTT, normal hepatocyte cell line; for Selectivity: IC50 (QSG-7701)/IC50 (HeLa)
Description: (§1) Human breast cancer cell line (MDA-MB-231), cervical carcinoma cell line (HeLa), the liver cancer cell line (SMMC-7721) and normal hepatocyte cell line (QSG-7701) were maintained in Dulbecco Modified Eagle Medium (DMEM) containing 4.0 mM L-Glutamine and 4500 mg/L Glucose supplemented with 10% (v/v) foetal bovine serum (FBS) and 100 U/mL penicillin/streptomycin at 37 °C in humidified atmosphere of 5% CO2 and 95% air.
(§2) Exponentially growing MDA-MB-231, Hela and SMMC-7721 cell lines were seeded into 96-well plate for 100 μL and treated with different concentrations of the synthetic compounds for 72 h, and then 10 μL of MTT (10 mg/mL) was added and incubation for 3 ∼ 4 h at 37 °C. The generated purple formazan crystals from viable can be dissolved by adding 100 μL DMSO. The plates were swirled gently for 5 min and quantified by measuring the OD of the plates at the wavelength of 540 nm. Each concentration was repeated in three wells and the same experimental condition was provided for all compounds. The results were expressed as IC50 values with standard deviations, which was defined as the concentration at which 50% survival of cells was discerned. Etoposide was co-assayed as positive control.
(§3) The in vitro cytotoxic activity of derivatives 3a–d, 4a–h, 5a–h, and 6a–h were evaluated by MTT assay against human breast cancer cell line (MDA-MB-231), cervical carcinoma cell line (HeLa), hepatocarcinoma cell line (SMMC-7721) and human normal hepatocyte cell line (QSG-7701). The anticancer drug etoposide was co-assayed as the positive control. All tested compounds were dissolved in DMSO and the stock solutions were diluted by DMEM medium before treatment of the cultured cells.

MDA-MB-231 cells = assay: MTT cytotoxic assay, MDA-MB-231; format: cell-based, human
Description: as §1, §2, §3

HeLa cells = assay: MTT cytotoxic assay, HeLa; format: cell-based; conditions: Homo sapiens, 72 h
Description: as §1, §2, §3

SMMC-7721 cells = assay: MTT cytotoxic assay, SMMC-7721; format: cell-based; conditions: Homo sapiens, 72 h
Description: as §1, §2, §3

MEK1 = biological target: T1, MEK1 (Homo sapiens, UniProt Q02750); assay: In vitro MEK1 kinase assay (ADP-Glo); format: biochemical; conditions: recombinant GST-MEK1, GST-ERK2 (inactive) substrate, 10 μM ATP
T1 construct: purchased Carna Biosciences, Kobe, Japan
T1 sequence (Q02750 whole entry): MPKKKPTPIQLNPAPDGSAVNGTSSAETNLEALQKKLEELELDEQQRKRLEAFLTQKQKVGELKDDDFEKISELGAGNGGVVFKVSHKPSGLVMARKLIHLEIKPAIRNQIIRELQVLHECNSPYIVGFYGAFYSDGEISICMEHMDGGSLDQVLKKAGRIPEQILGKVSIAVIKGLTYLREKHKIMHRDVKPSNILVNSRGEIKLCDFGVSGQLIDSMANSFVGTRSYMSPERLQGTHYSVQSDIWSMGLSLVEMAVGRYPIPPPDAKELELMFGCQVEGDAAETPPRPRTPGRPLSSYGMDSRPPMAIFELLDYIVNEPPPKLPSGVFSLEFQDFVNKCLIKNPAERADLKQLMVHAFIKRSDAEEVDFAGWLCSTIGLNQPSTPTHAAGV
Description: An in vitro kinase assay of MEK1 was performed using ADP-Glo kinase assay (Promega, Madison, WI, USA) according to the manufacturer’s protocol. […] Reactions were stopped by adding 5 μL of ADP-Glo reagent to each well. After incubating at 22 °C for 40 min, 10 μL of the kinase detection reagent was added and the plates were incubated for another 30 min at 22 °C in the dark. The reaction mixture was analysed by EnSpire (PerkinElmer, Waltham, MA, USA).
The Raf/MEK/ERK pathway is the downstream of Ras activation, and the abnormal expression or phosphorylation of the associated proteins is essential for cancer cell proliferation. In this pathway, MEK kinase is an important anticancer target because of its key roles in regulating the cancer cell apoptosis and oncogenic transformation[51]^,[52]. Among MEK proteins, MEK1 and MEK2 are known as substrate-specific kinases which phosphorylate their downstream kinase ERK1/2.

SMILES	IC50 (QSG-7701 cells)	IC50 (MDA-MB-231 cells; Homo sapiens, MDA-MB-231, 72 h)	IC50 (HeLa cells)	IC50 (SMMC-7721 cells)	IC50 (MEK1)	Selectivity (QSG-7701 cells)	IC50 (MDA-MB-231 cells; 72 h)
C[C@@H]1CC[C@]2(C(=O)O)CC[C@]3(C)C(=CCC4[C@@]5(C)Cc6cc7ccccc7nc6C(C)(C)C5CC[C@]43C)C2[C@H]1C (some centres unmarked) [Compound 3a]	> 50 µM	0.75 ± 0.05 µM	0.37 ± 0.04 µM	13.4 ± 0.08 µM	18.6 µM	–	–
COc1ccc2nc3c(cc2c1)CC1(C)C(CCC2(C)C1CC=C1C4C(C)C(C)CCC4(C(=O)O)CCC12C)C3(C)C (centres unmarked) [Compound 3b]	> 50 µM	0.61 ± 0.07 µM	0.36 ± 0.05 µM	12.49 ± 0.08 µM	3.59 µM	142.3	–
C[C@@H]1CC[C@]2(C(=O)O)CC[C@]3(C)C(=CCC4[C@@]5(C)Cc6cc7cc(F)ccc7nc6C(C)(C)C5CC[C@]43C)C2[C@H]1C (some centres unmarked) [Compound 3c]	> 50 µM	0.9 ± 0.1 µM	1.87 ± 0.03 µM	13.34 ± 0.13 µM	0.37 µM	37.0	–
C[C@@H]1CC[C@]2(C(=O)O)CC[C@]3(C)C(=CCC4[C@@]5(C)Cc6cc7cc(Cl)ccc7nc6C(C)(C)C5CC[C@]43C)C2[C@H]1C (some centres unmarked) [Compound 3d]	> 50 µM	1.36 ± 0.03 µM	1.22 ± 0.08 µM	14.62 ± 0.05 µM	0.82 µM	59.5	–
CC(=O)NNC(=O)[C@]12CC[C@@H](C)[C@H](C)C1C1=CCC3[C@@]4(C)Cc5cc6ccccc6nc5C(C)(C)C4CC[C@@]3(C)[C@]1(C)CC2 (some centres unmarked) [Compound 4a, N-[ursa-12-en-(2,3)-quinoline-28-oyl]-acetohydrazide]	40.6 ± 2.89 µM	1.84 ± 0.13 µM	1.18 ± 0.03 µM	17.48 ± 0.1 µM	37.3 µM	34.4	–
COc1ccc2nc3c(cc2c1)CC1(C)C(CCC2(C)C1CC=C1C4C(C)C(C)CCC4(C(=O)NNC(C)=O)CCC12C)C3(C)C (centres unmarked) [Compound 4b, N-[5′-methoxy-ursa-12-en-(2,3)-quinoline-28-oyl]-acetohydrazide]	45.2 ± 2.82 µM	1.42 ± 0.14 µM	0.83 ± 0.09 µM	17.65 ± 0.11 µM	10.9 µM	54.5	–
CC(=O)NNC(=O)[C@]12CC[C@@H](C)[C@H](C)C1C1=CCC3[C@@]4(C)Cc5cc6cc(F)ccc6nc5C(C)(C)C4CC[C@@]3(C)[C@]1(C)CC2 (some centres unmarked) [Compound 4c, N-[5′-fluoro-ursa-12-en-(2,3)-quinoline-28-oyl]-acetohydrazide]	> 50 µM	1.16 ± 0.06 µM	0.99 ± 0.05 µM	19.41 ± 0.12 µM	0.072 µM	63.8	–
Cc1nnc([C@]23CC[C@@H](C)[C@H](C)C2C2=CCC4[C@@]5(C)Cc6cc7ccccc7nc6C(C)(C)C5CC[C@@]4(C)[C@]2(C)CC3)o1 (some centres unmarked) [Compound 5a, N-2-[ursa-12-en-(2,3)-quinoline-28-oyl]-5-methyl-1,3,4-oxadiazole]	> 50 µM	< 10 µM	19.4 ± 0.7 µM	> 50 µM	> 50 µM	4.3	5.32 ± 0.13 µM
Cc1nnc([C@]23CC[C@@H](C)[C@H](C)C2C2=CCC4[C@@]5(C)Cc6cc7cc(Cl)ccc7nc6C(C)(C)C5CC[C@@]4(C)[C@]2(C)CC3)o1 (some centres unmarked) [Compound 5d, N-[5′-chloro-ursa-12-en-(2,3)-quinoline-28-oyl]-5-methyl-1,3,4-oxadiazole]	> 50 µM	11 ± 0.98 µM	–	> 50 µM	> 50 µM	20.1	–
Cc1nnc([C@]23CC[C@@H](C)[C@H](C)C2C2=CCC4[C@@]5(C)Cc6cc7cc(Cl)ccc7nc6C(C)(C)C5CC[C@@]4(C)[C@]2(C)CC3)s1 (some centres unmarked) [Compound 6d]	> 50 µM	15.8 ± 1.32 µM	10.9 ± 1.07 µM	> 50 µM	> 50 µM	5.7	–
